Key:
Experiment in all cases: Agar diffusion test (microbiological test)
Type in all cases: cell-based
Details in all cases: 100 μl of a 1% solution in abs. ethanol; 48 h incubation at 37° C.
[1] = tested on: Staphylococcus aureus ATCC 9144
Experimental: (§1) Casein soybean flour peptone agar (Merck)
(§2) Casein soybean flour peptone broth (Merck)
Staphylococcus aureus ATCC 9144
(§3) Preparation of the Germ Suspensions
(§4) The test germs are cultivated overnight (about 18 h) at 37° C. in Caso-Broth (5 ml test tubes). The germ count of the overnight cultivation is determined by the spiralometer method and must be between 10^8-10^9 KBE/ml.
(§5) The culture is diluted to about 10^7 KBE/ml with 0.85% NaCl solution, pH 7.2.
(§6) Petri dishes are filled with about 18 ml of sterile nutrient agar which is allowed to solidify.
(§7) 3.5 ml of the germ dilution in 0.85% NaCl are pipetted into 500 ml of still liquid agar which is cooled in a water bath to 47° C. and homogenised.
(§8) 6 ml of the germ-infested agar are evenly distributed on the solidified ground layer. After a drying and storage time of about 24 hours at 4° C. the dishes are ready for the test.
(§9) Drop Amount 100 μl of a 1% solution of the tetraester of formula (104) in abs. ethanol are pipetted into the centre of the dish and are dried for about 30 minutes at room temperature (the substances run into zones of about 20-30 mm).
(§10) Results of the Agar Diffusion Test
(§11) After a 48 h incubation of the agar dishes at 37° C., the growth of the […] in the drop zone is assessed.

[2] = tested on: Corynebacterium xerosis ATCC 373
Experimental: as §1, §2
Corynebacterium xerosis ATCC 373
as §3, §4, §5, §6, §7, §8, §9, §10, §11

[3] = tested on: Escherichia coli NCTC 8196
Experimental: as §1, §2
Escherichia coli NCTC 8196
as §3, §4, §5, §6, §7, §8, §9, §10, §11

What does the source list for `CCCCC(CC)COC(=O)CC(NCCNC(CC(=O)OCC(CC)CCCC)C(=O)OCC(CC)CCCC)C(=O)OCC(CC)CCCC` (mixture of isomers) [ethylenediaminedisuccinic acid tetra(isooctyl)ester (isomer mixture), [S,S]-/[R,R]-/[R,S]-Ethylenediaminedisuccinic acid tetraisooctyl ester (isomer mixture)]?
growth in the drop zone, Staphylococcus aureus ATCC 9144 [1]: no inhibition; growth in the drop zone, Corynebacterium xerosis ATCC 373 [2]: inhibition; growth in the drop zone, Escherichia coli NCTC 8196 [3]: no inhibition

`CCCCC(CC)COC(=O)C[C@H](NCCN[C@@H](CC(=O)OCC(CC)CCCC)C(=O)OCC(CC)CCCC)C(=O)OCC(CC)CCCC` (stereo partly drawn) [[S,S]-Ethylenediaminedisuccinic acid tetraisooctyl ester] was tested. Which “growth in the drop zone, Staphylococcus aureus ATCC 9144” value [1] did it give?
Its value is “no inhibition”.

What about the “growth in the drop zone, Corynebacterium xerosis ATCC 373” value [2] of the same compound?
Its value is “inhibition”.

And the “growth in the drop zone, Escherichia coli NCTC 8196” value [3]?
The value was “no inhibition”.
